Data: patent US20250295648A1 (priority 2024, published 2025)
Several values for one entry are separate records, joined by “and”; a condition that tells them apart may be missing. Equal values may be shown once.

How the values were obtained:
[1] = test system: L-DOPA-induced dyskinesia in Parkinson's disease patients; assay: Unified Dyskinesia Rating Scale (UDysRS) after 150% L-DOPA challenge; settings: for UDysRS Parts 3 + 4, highest score of assessment sessions, mean change from baseline / UDysRS Part 3 sum of items, average of assessment sessions, mean change from baseline / UDysRS Part 3 sum of items, highest score of assessment sessions, mean change from baseline / UDysRS Parts 3 + 4, average of assessment sessions, mean change from baseline / UDysRS Total (Parts 1 to 4), average of assessment sessions, mean change from baseline / UDysRS Total (Parts 1 to 4), highest score of assessment sessions, mean change from baseline: per-protocol set; for UDysRS Part 3 sum of items, average of assessment sessions, mean change from baseline: p < 0.05 vs placebo
Experimental: Patients were rated for dyskinesia at baseline and on days 28 (at end of up-titration period) and 42 (end of stable dosing period). Because the level of dyskinesia experienced by patients can vary over time, they were given 150% (i.e., 1.5×) of their regular L-DOPA dose (up to a maximum of 250 mg) as a challenge 30 min before each dyskinesia assessment to improve comparability between patients and between visits. Patients were filmed 30, 60 and 90 min after dosing with L-DOPA (˜5 min of filming each time). LID was assessed using the Unified Dyskinesia Rating Scale (UDysRS). Changes from baseline are shown for total score (i.e., Parts 1 to 4), for total objective score (i.e., Parts 3+4), and for the sum of Part 3 objective impairment assessment scores. Because objective LID assessment was carried out at 3 time-points (30, 60 and 90 min) following L-DOPA challenge, the above parameters were analyzed based on the most severe of the three scores as well as on the average score of the 3 time points.
The patient took 150% of their normal L-DOPA dose 30 minutes prior to the start of efficacy assessments (UDysRS) at Day 1 (Visit 2), Day 28 (Visit 6) and Day 42 (Visit 7).
The UDysRS is a rating instrument designed to assess the core features of dyskinesia in Parkinson's Disease. The UDysRS consists of 4 parts: • r. Part I, historical disability with regard to the patient's perceptions of the impact on activities of ADL of on-dyskinesia. • s. Part II, historical disability with regard to the patient's perceptions of the impact on ADL of off-dystonia. • t. Part III, objective impairment, which assesses severity of dyskinesia, affected body parts, and type of impairment (choreic vs. dystonic). • u. Part IV, objective disability, based on an evaluation of Part III activities.
Each item in the UDysRS is scored from 0 to 4, with a possible maximum total score of 104.
The UDysRS assessment would be performed at baseline (Day 1, Visit 2), Day 28 and Day 42 (Visits 6 and 7) starting approximately 30 minutes after the L-DOPA challenge on these days.
The data for all 3 assessments performed at each visit would be entered in the eCRF and the Investigator will highlight which of the assessments, corresponding to the assessment where the patient had most severe dyskinesia, that would be used in the descriptive summaries of data.
Change from baseline in the UDysRS total score to Visit 6 (Day 28) and Visit 7 (Day 42) respectively would be summarized using descriptive statistics. […] The same analysis would be done for UDysRS total objective score Part III and IV only.
The baseline value of the dependent variable has been included in the model as a continuous covariate.

[2] = test system: overall PD symptoms in PD patients with LID; assay: Clinical Global Impression of Change (CGI-C); assay type: in vivo, human
From the text: The CGI-C is a clinician-oriented scale that assesses the total improvement in the patient's condition relative to the clinical global impression of severity (CGI-S) scale conducted at baseline. The CGI-C rates the patient's condition from 0 to 7, with a rating of 0 indicating “no assessment”, a rating of 1 indicating “very much better”, and a rating of 7 indicating “very much worse”.

[3] = Visit 6 Clinic Efficacy Visit (Day 28), per protocol analysis set, N = 15
[4] = Visit 7 Clinic Efficacy Visit (Day 42), per protocol analysis set, N = 15
[5] = days 28 and 42, within NLX-112 group
[6] = individual patients A-E co-treated with amantadine
[7] = per-protocol set (n = 15), Baseline
[8] = Δ D 28 (end of up-titration), p < 0.01 vs baseline
[9] = Δ D 42 (end of stable dosing), p < 0.001 vs baseline
[10] = Δ D 42 (end of stable dosing), p < 0.01 vs baseline

Cc1ccc(CNCC2(F)CCN(C(=O)c3ccc(F)c(Cl)c3)CC2)nc1 [NLX-112, (3-chloro-4-fluoro-phenyl)-[4-fluoro-4-{[(5-methyl-pyridin-2-ylmethyl)-amino]-methyl}piperidin-1-yl]methanone]
UDysRS Parts 3 and 4 average, absolute change from baseline, mean [1, 3]: −2.49
UDysRS Parts 3 and 4 average, absolute change from baseline, median [1, 3]: −1.67
UDysRS Parts 3 and 4 average, collected value, mean [1, 3]: 11.60
UDysRS Parts 3 and 4 average, collected value, median [1, 3]: 10.33
UDysRS Parts 3 and 4 average, relative change from baseline (%), mean [1, 3]: −17.3%
UDysRS Parts 3 and 4 average, relative change from baseline (%), median [1, 3]: −20.0%
UDysRS Parts 3 and 4 most severe, absolute change from baseline, mean [1, 3]: −1.7
UDysRS Parts 3 and 4 most severe, absolute change from baseline, median [1, 3]: −1.0
UDysRS Parts 3 and 4 most severe, collected value, mean [1, 3]: 13.8
UDysRS Parts 3 and 4 most severe, collected value, median [1, 3]: 12.0
UDysRS Parts 3 and 4 most severe, relative change from baseline (%), mean [1, 3]: −15.8%
UDysRS Parts 3 and 4 most severe, relative change from baseline (%), median [1, 3]: −8.33%
UDysRS Parts 1, 2, 3, and 4 average, absolute change from baseline, mean [1, 4]: −6.51
UDysRS Parts 1, 2, 3, and 4 average, absolute change from baseline, median [1, 4]: −7.67
UDysRS Parts 1, 2, 3, and 4 average, collected value, mean [1, 4]: 23.64
UDysRS Parts 1, 2, 3, and 4 average, collected value, median [1, 4]: 23.00
UDysRS Parts 1, 2, 3, and 4 average, relative change from baseline (%), mean [1, 4]: −19.5%
UDysRS Parts 1, 2, 3, and 4 average, relative change from baseline (%), median [1, 4]: −21.9%
UDysRS Parts 1, 2, 3, and 4 most severe, absolute change from baseline, mean [1, 4]: −6.3
UDysRS Parts 1, 2, 3, and 4 most severe, absolute change from baseline, median [1, 4]: −8.0
UDysRS Parts 1, 2, 3, and 4 most severe, collected value, mean [1, 4]: 25.3
UDysRS Parts 1, 2, 3, and 4 most severe, collected value, median [1, 4]: 24.0
UDysRS Parts 1, 2, 3, and 4 most severe, relative change from baseline (%), mean [1, 4]: −19.0%
UDysRS Parts 1, 2, 3, and 4 most severe, relative change from baseline (%), median [1, 4]: −25.8%
UDysRS Parts 3 and 4 average, absolute change from baseline, mean [1, 4]: −3.31
UDysRS Parts 3 and 4 average, absolute change from baseline, median [1, 4]: −3.33
UDysRS Parts 3 and 4 average, collected value, mean [1, 4]: 10.78
UDysRS Parts 3 and 4 average, collected value, median [1, 4]: 9.67
UDysRS Parts 3 and 4 average, relative change from baseline (%), mean [1, 4]: −25.3%
UDysRS Parts 3 and 4 average, relative change from baseline (%), median [1, 4]: −31.5%
UDysRS Parts 3 and 4 most severe, absolute change from baseline, mean [1, 4]: −3.1
UDysRS Parts 3 and 4 most severe, absolute change from baseline, median [1, 4]: −4.0
UDysRS Parts 3 and 4 most severe, collected value, mean [1, 4]: 12.4
UDysRS Parts 3 and 4 most severe, collected value, median [1, 4]: 11.0
UDysRS Parts 3 and 4 most severe, relative change from baseline (%), mean [1, 4]: −21.0%
UDysRS Parts 3 and 4 most severe, relative change from baseline (%), median [1, 4]: −31.6%
UDysRS sum of Part 3 items, average of all 3 assessments, NLX-112 vs placebo ([1]; day 28 and day 42): significantly greater change from baseline
net reduction in UDysRS total score, more than placebo ([1]; day 42): 3.9 points
UDysRS sum of Part 3 items, most severe assessment, vs baseline [1, 5]: significant reduction
UDysRS total score based on the average of 3 assessments, vs baseline [1, 5]: significant reduction
UDysRS Part 3 + 4, Δ from baseline [1, 6]: +3 and +2 and −11 and −6 (2×)
UDysRS Total, Δ from baseline [1, 6]: −2 and +7 and −11 and −8 and −6
amantadine-using patients with numerical reductions in UDysRS total score and total objective score ([1]; of the 5 amantadine-using patients on NLX-112): 3
UDysRS Part 3 sum of items, average of assessment sessions, mean [1, 7]: 21.5
UDysRS Part 3 sum of items, highest score of assessment sessions, mean [1, 7]: 24.7
UDysRS Parts 3 + 4, average of assessment sessions, mean [1, 7]: 14.1
UDysRS Parts 3 + 4, highest score of assessment sessions, mean [1, 7]: 15.5
UDysRS Total (Parts 1 to 4), average of assessment sessions, mean [1, 7]: 30.1
UDysRS Total (Parts 1 to 4), highest score of assessment sessions, mean [1, 7]: 31.6
UDysRS Parts 3 + 4, highest score of assessment sessions, mean change from baseline ([1]; Δ D 28 (end of up-titration)): −1.7
UDysRS Part 3 sum of items, average of assessment sessions, mean change from baseline ([1]; Δ D 28 (end of up-titration), p < 0.001 vs baseline): −5.5
UDysRS Part 3 sum of items, highest score of assessment sessions, mean change from baseline [1, 8]: −5.5
UDysRS Parts 3 + 4, average of assessment sessions, mean change from baseline [1, 8]: −2.5
UDysRS Total (Parts 1 to 4), average of assessment sessions, mean change from baseline [1, 8]: −4.8
UDysRS Total (Parts 1 to 4), highest score of assessment sessions, mean change from baseline ([1]; Δ D 28 (end of up-titration), p < 0.05 vs baseline): −4.1
UDysRS Part 3 sum of items, average of assessment sessions, mean change from baseline ([1]; Δ D 42 (end of stable dosing), p < 0.0001 vs baseline): −7.1
UDysRS Part 3 sum of items, highest score of assessment sessions, mean change from baseline [1, 9]: −7.8
UDysRS Parts 3 + 4, average of assessment sessions, mean change from baseline [1, 9]: −3.3
UDysRS Total (Parts 1 to 4), average of assessment sessions, mean change from baseline [1, 9]: −6.5
UDysRS Parts 3 + 4, highest score of assessment sessions, mean change from baseline [1, 10]: −3.1
UDysRS Total (Parts 1 to 4), highest score of assessment sessions, mean change from baseline [1, 10]: −6.3
CGI-C: proportion of patients minimally, much or very much improved ([2]; Day 28): 33%
CGI-C: proportion of patients minimally, much or very much improved ([2]; Day 42): 53%
CGI-C Minimally improved, number of patients ([2]; Stable Dosing (d 42), n = 15): 3
CGI-C Minimally improved, proportion of patients ([2]; Stable Dosing (d 42), n = 15): (20%)
CGI-C Minimally worse, number of patients ([2]; Stable Dosing (d 42), n = 15): 1
CGI-C Minimally worse, proportion of patients ([2]; Stable Dosing (d 42), n = 15): (6.7%)
CGI-C Much improved, number of patients ([2]; Stable Dosing (d 42), n = 15): 4
CGI-C Much improved, proportion of patients ([2]; Stable Dosing (d 42), n = 15): (27%)
CGI-C No change, number of patients ([2]; Stable Dosing (d 42), n = 15): 6
CGI-C No change, proportion of patients ([2]; Stable Dosing (d 42), n = 15): (40%)
CGI-C Total Improved, number of patients ([2]; Stable Dosing (d 42), n = 15): 8
CGI-C Total Improved, proportion of patients ([2]; Stable Dosing (d 42), n = 15): (53%)
CGI-C Very much improved, number of patients ([2]; Stable Dosing (d 42), n = 15): 1
CGI-C Very much improved, proportion of patients ([2]; Stable Dosing (d 42), n = 15): (6.7%)
CGI-C Minimally improved, number of patients ([2]; Up-Titration (d 28), n = 15): 3
CGI-C Minimally improved, proportion of patients ([2]; Up-Titration (d 28), n = 15): 20%
CGI-C Minimally worse, number of patients ([2]; Up-Titration (d 28), n = 15): 1
CGI-C Minimally worse, proportion of patients ([2]; Up-Titration (d 28), n = 15): 6.7%
CGI-C Much improved, number of patients ([2]; Up-Titration (d 28), n = 15): 2
CGI-C Much improved, proportion of patients ([2]; Up-Titration (d 28), n = 15): 13%
CGI-C No change, number of patients ([2]; Up-Titration (d 28), n = 15): 9
CGI-C No change, proportion of patients ([2]; Up-Titration (d 28), n = 15): 60%
CGI-C Total Improved, number of patients ([2]; Up-Titration (d 28), n = 15): 5
CGI-C Total Improved, proportion of patients ([2]; Up-Titration (d 28), n = 15): 33%
CGI-C Very much improved, number of patients ([2]; Up-Titration (d 28), n = 15): 0
CGI-C overall PD symptoms, NLX-112 vs placebo ([2]; days 28 and 42): no statistically significant differences
